From EP4759817A1, “HETEROARYL COMPOUND, PREPARATION METHOD THEREFOR, AND USE THEREOF IN MEDICINE” (Jiangsu Hengrui Pharmaceuticals Co., Ltd., priority 2023, dated 2025)

Key:
[1] = Pharmacokinetic evaluation in Nu/Nu mice (plasma, LC-MS/MS); assay type: in vivo; settings: mouse, plasma, po, i.g., 100 mg/kg; for Vd/F: read-out: Apparent volume of distribution V/F; for AUC(0-t): read-out: Area under the curve AUC0-t; for CL/F: read-out: Clearance CL/F; for half-life: read-out: Half life T1/2 (converted); for Cmax: read-out: Plasma concentration Cmax
Method: Using Nu/Nu mice as the test animals, the plasma concentrations of the example compounds at different time points were determined by LC-MS/MS following oral gavage (i.g.) administration. The pharmacokinetic behaviours of the compounds of the present disclosure in Nu/Nu mice were investigated, and their pharmacokinetic profiles were evaluated.
Compound 1-p1, compound 2-p1, compound 8-p1 and comparative example 1.
A total of 36 female Nu/Nu mice (supplied by Vital River Laboratory Animal Technology Co., Ltd.) were randomly divided into 4 groups.
An appropriate amount of each test compound was weighed and dissolved in 5% DMSO+20% PEG400+70% (10% TPGS)+5% (1% HMPC K100LV) to prepare a 10 mg/mL colourless clear solution.
The administration dosage was 100 mg/kg, and the administration volume was 10 mL/kg.
Mice were not fasted. After oral gavage administration, blood (0.1 mL) was collected from the orbital cavity before administration, and at 0.25 h, 0.5 h, 1.0 h, 2.0 h, 4.0 h, 6.0 h, 8.0 h, 11.0 h and 24.0 h after administration. The blood was placed into EDTA-K2 anticoagulant tubes and centrifuged at 10000 rpm for 1 minute (4°C) to separate plasma. The plasma was separated within 1 h and stored at -20°C until analysis. The entire process from blood collection to centrifugation was performed in ice bath conditions.
Determination of test compound contents in plasma of Nu/Nu mice after administration of different compounds: To 20 µL of plasma samples from each time point in Nu/Nu mice, 200 µL of acetonitrile and 25 µL of verapamil (100 ng/mL) were added. The mixture was vortex-mixed for 5 minutes and centrifuged at 4000 rpm for 15 minutes. 90 µL of water and 90 µL of the supernatant were vortex-mixed for 5 minutes. 2 µL (for compound 1-p1), 2 µL (for compound 2-p1), 1 µL (for compound 8-p1), or 0.5 µL (for comparative example 1) of the supernatant was taken for LC-MS/MS analysis receptively.

[2] = target: T1, Recombinant human PRMT5: MEP50 protein (Homo sapiens, UniProt O14744); assay: Inhibitory activity against human PRMT5 enzymatic activity (HTRF quantification of SAH, +MTA); assay type: biochemical; settings: +1 µM MTA; histone H4 peptide substrate (1-21), SAM; 37°C 120 min
T1 construct: purchased active motif 31521
Method: • 1. Recombinant human PRMT5: MEP50 protein (active motif, 31521) • 2. EPIgeneous Methyltransferase kit (cisbio, 62SAHPEH) • 3. 96-well plate (Sangon Biotech, F610960-0010) • 4. 384-well white plate (Perkin Elmer, 6007290) • 5. 1 M Tris-HCl [pH 8.5] (Sangon Biotech, B548141) • 6. Histone H4 peptide substrates (1-21) (BPS bioscience, 52014) • 7. 5'-deoxy-5'-(methylthio)adenosine (Aladdin, D168979-25 mg) • 8. Tween-20 (Sangon Biotech, A100777-0500) • 9. DMSO (Sigma, D2650) • 10. Incubator (Shanghai Boxun Medical Biological Instrument Corp.) • 11. PHERAstar FS microplate reader (BMG Labtech)
PRMT5 can induce the transfer of a methyl group from S-adenosylmethionine (SAM) to a histone H4 peptide substrate (1-21), generating S-adenosylhomocysteine (SAH). In this experiment, the amount of SAH produced in the reaction is quantified using a Homogeneous Time-Resolved Fluorescence (HTRF) method to evaluate the inhibitory activity of compounds against PRMT5 enzymatic activity.
The sample diluent containing (or not containing) 1 µM 5 '-deoxy-5' - (methylthiyl) adenosine (MTA) was prepared using the EPIgeneous Diluent Buffer from the EPIgeneous Methyltransferase kit. With reference to the instructions, SAM and SAH standards were serially diluted and dispensed at 10 µL per well (in duplicate for each concentration). 2 µL of EPIgeneous Detection Buffer 1 was added to each well, and the plate was centrifuged, shaken to mix thoroughly, and placed at room temperature for 10 min. The SAH d2 Reagent was diluted 32-fold with EPIgeneous Detection Buffer 2, and 4 µL of the diluted SAH-d2 solution was added to each well. The plate was centrifuged and shaken for 2 min to mix thoroughly. The SAH Tb Cryptate Antibody was diluted 50-fold in EPIgeneous Detection Buffer 2. 4 µL of the diluted Tb Cryptate Antibody solution was added to each well, and the plate was centrifuged, shaken for 2 min to mix thoroughly, and left to stand at room temperature for 60 min, followed by reading on a PHERAstar FS microplate reader to obtain the 665/620 ratio. Plotting SAH concentration against the ratio to generate an x-y curve yields a corresponding calculation formula.
Reaction buffer (1×): 50 mM Tris-HCl [pH 8.5], 1 mM DTT, 0.005% Tween-20.
Compound preparation: a 20 mM solution of test compound in 100% DMSO was diluted in 100% DMSO to 1 mM as the highest concentration, and the solution at this concentration was then subjected to a 10-point, 3-fold serial dilution in 100% DMSO in a 96-well plate. Wells containing 100% DMSO served as the blank control. The above-described serially diluted compounds and the 100% DMSO were diluted 20-fold with the reaction buffer to prepare 5× compound solutions, which were mixed thoroughly for use.
The PRMT5:MEP50 was diluted in the reaction buffer to a final concentration of 12.5 nM. Then, 4 µL of the 12.5 nM PRMT5:MEP50 solution was added to each well of a 384-well plate. Wells containing 4 µL of the reaction buffer served as the negative control wells. 2 µL of the 5× compound solution was added to each well. For the negative control wells (no enzyme, no compound) and the positive control wells (no compound), 2 µL of 5% DMSO was added. The plate was sealed with a membrane, centrifuged, shaken for 2 min to mix thoroughly, and placed at room temperature for 20 min.
Preparation of substrate mixture solution: The substrate mixture solution containing 1.5 µM histone H4 peptide substrate (1-21) and 2.5 µM SAM, or 1.5 µM histone H4 peptide substrate (1-21), 2.5 µM SAM and 2.5 µM MTA was prepared in the reaction buffer.
The reaction was initiated by adding 4 µL of the substrate mixture solution (-/+ MTA) to each well. The plate was sealed with a membrane, centrifuged, shaken for 2 min to mix thoroughly, and incubated at 37°C for 120 min in a constant temperature incubator.
Detection: The detection was performed by using the EPIgeneous Methyltransferase kit. […]

T1 sequence (O14744 whole entry): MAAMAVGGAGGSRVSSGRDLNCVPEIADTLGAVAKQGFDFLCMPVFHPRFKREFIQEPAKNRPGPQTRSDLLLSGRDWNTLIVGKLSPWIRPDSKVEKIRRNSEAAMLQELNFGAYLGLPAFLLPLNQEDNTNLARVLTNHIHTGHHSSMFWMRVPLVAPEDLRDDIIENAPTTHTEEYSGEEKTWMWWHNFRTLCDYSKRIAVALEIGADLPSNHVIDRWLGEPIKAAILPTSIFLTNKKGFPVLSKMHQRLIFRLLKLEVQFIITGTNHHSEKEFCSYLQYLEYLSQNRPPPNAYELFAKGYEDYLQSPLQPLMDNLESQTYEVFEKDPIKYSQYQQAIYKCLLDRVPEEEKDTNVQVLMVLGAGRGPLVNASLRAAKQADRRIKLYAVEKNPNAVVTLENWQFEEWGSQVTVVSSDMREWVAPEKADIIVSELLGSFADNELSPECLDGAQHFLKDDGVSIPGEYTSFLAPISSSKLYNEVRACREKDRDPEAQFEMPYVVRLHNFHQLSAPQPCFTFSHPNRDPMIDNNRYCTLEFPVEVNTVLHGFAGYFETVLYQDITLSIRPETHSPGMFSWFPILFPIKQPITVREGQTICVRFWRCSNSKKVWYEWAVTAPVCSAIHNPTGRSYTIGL
T1 sequence (Q9BQA1 whole entry partner): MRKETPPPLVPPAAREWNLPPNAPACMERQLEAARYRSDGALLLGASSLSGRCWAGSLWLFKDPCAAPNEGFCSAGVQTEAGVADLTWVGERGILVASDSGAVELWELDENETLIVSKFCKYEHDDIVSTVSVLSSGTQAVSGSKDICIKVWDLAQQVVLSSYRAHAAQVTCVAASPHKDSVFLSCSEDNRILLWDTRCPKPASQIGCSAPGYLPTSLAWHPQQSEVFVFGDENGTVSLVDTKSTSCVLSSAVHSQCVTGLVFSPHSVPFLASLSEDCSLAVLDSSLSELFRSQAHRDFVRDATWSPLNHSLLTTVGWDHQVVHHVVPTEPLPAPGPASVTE

| Structure (SMILES) | Vd/F [1] [L/kg] | AUC(0-t) [1] [ng·h/mL] | CL/F [1] [mL/min/kg] | half-life [1] [min] | Cmax [1] [ng/mL] | IC50 [2] [nM] |
| --- | --- | --- | --- | --- | --- | --- |
| Cn1ncc(-c2ccc3c(=O)[nH]nc(CN)c3c2)c1-c1c(F)cc2c(c1C#N)O[C@H]1CC[C@H]1O2 (atropisomer, axis not shown; (M)) [Compound 1-p1, (M)-(2aS,8aR)-5-(4-(4-(aminomethyl)-1-oxo-1,2-dihydrophthalazin-6-yl)-1-methyl-1H-pyrazol-5-yl)-6-fluoro-1,2,2a,8a-tetrahydrobenzo[b]cyclobuta[e][1,4]dioxine-4-carbonitrile] | 35.4 | 8650 | 189 | 132 | 3250 | 4.91 |
| [2H]C([2H])([2H])n1ncc(-c2ccc3c(=O)[nH]nc(CN)c3c2)c1-c1c(F)cc2c(c1C#N)O[C@H]1CC[C@H]1O2 (single isomer, unassigned) [Compound 2-p1] | 23.3 | 7140 | 233 | 72 | 2940 | 5.23 |
| [2H]C([2H])([2H])n1ncc(-c2ccc3c(=O)[nH]nc(CN)c3c2)c1-c1c(F)cc2c(c1C#N)N1CCC[C@H]1CO2 (single isomer, unassigned) [Compound 8-p1] | 23.9 | 7640 | 218 | 78 | 2530 | 5.19 |
